For the test, the system named is M. tuberculosis H37Rv growth inhibition. In words: M. tuberculosis H37Rv growth inhibitors, H37Rv strain (AID 1626). The note with it: for IC90: measured here: IC90 against H37Rv; for CC50: measured here: Vero cell cytotoxicity.

For orientation: IC50 means the concentration needed to halve the response being measured. What is called IC90 is the concentration at which the effect reaches the 90% level. Read a high IC90 as weaker potency. As a reminder, the CC50 is the concentration at which the toxic effect on the cells reaches its halfway point. A low value points to greater toxicity to the cells.

Where only a bound is given, the exact number is not on record here.

On to `COc1ccc(-c2nnc(SCC(=O)Nc3cc(C)on3)o2)cc1`, for which the 50% inhibitory concentration (IC50) is 3.86 µM, the IC90 amounted to 6.19 µM and the CC50 was over 40 µM.

In the case of `Cc1nn(-c2ccccc2)nc1C(=O)c1c(C)[nH]n(-c2ccccc2)c1=O`, the IC50 was 8.35 µM, the IC90 came out at 13.6 µM and the cytotoxic concentration (CC50) turned out to be 37 µM.

With `O=c1[nH]c(CN2CCCCC2)nc2c1C1(CCCCC1)Cc1ccccc1-2`, the IC50 is 4.01 µM and the IC90 is over 100 µM.

As to `Cc1ccccc1/C=c1\s/c(=C\C(=O)C(C)(C)C)[nH]c1=O`, the IC50 was 52.8 µM, the IC90 was over 100 µM and the CC50 was 17.2 µM.

Turning to `COC(=O)CSc1ccc(-c2nc3ccc(C)cc3[nH]2)cn1`, the IC50 was 1.95 µM and the IC90 is 3.39 µM.

For the compound `CC1=CC(C)(C)Nc2ccc(OC(=O)c3ccco3)cc21`, the IC50 is 54.4 µM, the IC90 was over 100 µM and the CC50 is over 40 µM.

As for `CCn1c(=O)c(C(=O)Nc2nc3ccccc3[nH]2)c(O)c2ccccc21`, the IC50 is 0.388 µM, the concentration for an effect of 90% (IC90) worked out at 0.423 µM and the CC50 was over 40 µM.

On to `CCOC(=O)C(C(=O)OCC)C1N=C(N)N=C2Oc3ccccc3N21` (configuration not stated), for which the IC50 is 17.1 µM and the IC90 was 36.7 µM.

Regarding `COc1cccc(C2C(C(=O)Nc3nc4ccccc4s3)=C(C)NC3=C2C(=O)CC(C)(C)C3)c1OC` (configuration not stated), the IC90 is over 100 µM and the CC50 is over 40 µM.

`Clc1ccc(-c2ccc(C=Nc3ccc(N4CCOCC4)cc3)o2)c(Cl)c1` showed an IC90 of over 100 µM.

Turning to `COc1ccc(NC(=O)CN(C)CC(=O)Nc2cccc(F)c2)cc1Cl`, the IC50 is 32 µM and the IC90 was over 100 µM.

`CCOC(=O)c1cnc(-n2nc(C)cc2C)nc1NC(C)c1ccccc1` (configuration not stated): the IC50 is 1.06 µM, the IC90 stood at 2.08 µM and the CC50 came to 36 µM.

For `CCCCCCOC(=O)c1ccc(NC(=O)c2cc(OC)c(OC)c(OC)c2Br)cc1`, the IC50 is 5.27 µM, the IC90 worked out at 8.11 µM and the CC50 was over 40 µM.

Regarding `O=C(Nc1cc(C(F)(F)F)cc(C(F)(F)F)c1)Nc1cnn(-c2ccc([N+](=O)[O-])cc2)c1C(F)(F)F`, the IC50 was 0.676 µM, the IC90 came out at 0.938 µM and the CC50 worked out at 2.76 µM.

Compound `COc1ccccc1/C=C/C(=O)c1ccc(NC(C)=O)cc1` showed a CC50 of 22.8 µM. That is a double-digit micromolar value.

Regarding `Cn1c2c(c(=O)n(C)c1=O)C(C(F)(F)F)(C(F)(F)F)N=C(c1ccc(Cl)cc1)N2`, the IC50 was 4.92 µM, the IC90 was 6.68 µM and the CC50 came to 2.61 µM.

Turning to `Cc1ccc(CSc2nnc(CCCCCNC(=O)OC(C)(C)C)o2)cc1`, the IC50 was 11.7 µM and the IC90 was 13.6 µM.

Take `CCN(CC)CCOC(=O)c1ccc(N/C=C(/C#N)c2nc(-c3ccc4c(c3)OCO4)cs2)cc1`: the IC50 was 13.5 µM, the IC90 came to 22.6 µM and the CC50 stood at 7.2 µM.

On to `CCOc1cc(CNC(C)(C)CO)cc(Br)c1OCc1ccc(Cl)cc1Cl`, for which the IC50 is 11.4 µM, the IC90 is 12.3 µM and the CC50 was found to be 12.7 µM.

With `COc1cc(CN2CCCC(C(=O)c3ccccc3SC)C2)cc(OC)c1` (configuration not stated), the IC50 is 22.7 µM, the IC90 stood at 25.9 µM and the CC50 is over 40 µM.

The compound `Cc1sc(NC(=O)c2ccco2)c(C(c2ccccc2)N2CCC(C)CC2)c1C` (configuration not stated) displayed a CC50 of over 40 µM.

As for `O=c1oc2ccc(Br)cc2cc1-c1nc2ccccc2o1`, the IC50 is 2 µM and the IC90 is 3.83 µM.

With `Cc1ccc(N2CCN(C(=O)Nc3cccc([N+](=O)[O-])c3)CC2C)cc1` (configuration not stated), the IC50 is 27.1 µM, the IC90 is over 100 µM and the CC50 is over 40 µM.

On to `CN(C)c1ccc(O)c2c1CC1CC3C(N(C)C)C(=O)C(C(N)=O)=C(O)[C@@]3(O)C(=O)C1=C2O` (some centres not stated), for which the IC50 is 3.33 µM, the IC90 was 7.59 µM and the CC50 is over 40 µM.

In the case of `Nc1ccccc1Nc1cc(-c2ccccc2)[nH]n1`, the IC90 was over 100 µM.

With `COc1ccc(SN=C2C(C)=CC(=O)C=C2C)cc1`, the IC50 is 11 µM and the 90% effect concentration (IC90) came out at 12.3 µM.

For the compound `CCOc1c2c(nc3ccc(Cl)cc13)CCC2`, the IC50 was 5.14 µM, the IC90 worked out at 21.4 µM and the CC50 was over 40 µM.

For `CCOc1ccc(N2CCc3c(C)nc(SC)nc32)cc1`, the IC50 is under 0.195 µM, the IC90 is 40.3 µM and the CC50 is 27.1 µM.

With `CCOCCOC(=O)COc1ccc2c(-c3ccccc3)cc(=O)oc2c1`, the IC50 is 1.28 µM and the IC90 came out at 4.32 µM.

Take `CC(C)OC(=O)CSc1ncnc2c1cnn2Cc1ccccc1`: the IC50 is 8.22 µM and the IC90 is 19 µM.

As for `O=C(Nc1ccc(Cl)cc1)c1cc2c(cc1O)[nH]c1ccccc12`, the IC50 is 1.71 µM, the IC90 turned out to be 2.29 µM and the CC50 is 13.4 µM.

Take `Cc1cccc(OCCCCc2c(C)n[nH]c2C)c1C`: the 50% inhibitory concentration (IC50) is 2.75 µM, the IC90 stood at 3.87 µM and the CC50 amounted to 30.2 µM.

Turning to `COc1ccc(OC(=O)c2cnn(-c3ccccc3)c2C)cc1`, the IC50 was 71.2 µM and the IC90 was over 100 µM.

Consider `CC1CCCN(C(=O)C2CCC(CNc3c(N4CCCCC4)c(=O)c3=O)CC2)C1` (configuration not stated), for which the IC50 was 11.7 µM and the IC90 is over 100 µM.

In the case of `CCOc1ccc(-n2cc(-c3ccccc3)c3c(SC(C)C(=O)OC)ncnc32)cc1` (configuration not stated), the IC50 was 6.4 µM and the IC90 was over 100 µM.

In the case of `Cc1nc(N2CCN(Cc3ccc4c(c3)OCO4)CC2)c2cc(-c3ccccc3)sc2n1`, the IC50 was 5.39 µM, the IC90 came to 6.08 µM and the CC50 is over 40 µM.

As for `COC(=O)CN1C(c2ccc(OC)cc2)=Nc2ccc(Cl)cc2C1c1ccccc1` (configuration not stated), the IC50 is 3.18 µM and the IC90 is 6.98 µM.

Turning to `COc1ccccc1/C=C/CN1CCCC(CO)(Cc2cccc(Cl)c2)C1` (configuration not stated), the IC50 was 10.9 µM, the IC90 came out at 16.4 µM and the CC50 was over 40 µM.

Turning to `CC(C)(C)Nc1nc(NC(C)(C)C)nc(-n2ccnc2)n1`, the IC50 was 11.4 µM and the IC90 worked out at 13.1 µM.

Turning to `CN1CCN(C2=Cc3ccccc3Sc3cc(F)c(Cl)cc32)CC1`, the IC50 was 11.6 µM, the IC90 turned out to be 13.2 µM and the CC50 was 36.4 µM.

Turning to `CCCCCOc1ccc(C(=O)NCC(=O)NCC(=O)OCC)cc1`, the IC50 is 5.74 µM, the IC90 was 6.53 µM and the CC50 was over 40 µM.

As for `CN1CCN(c2nc(-c3ccccc3)nc(-c3ccc(F)cc3)c2C#N)CC1`, the IC50 was 23.9 µM, the IC90 was over 100 µM and the CC50 was over 40 µM.

As to `O=c1cc(C(Cl)(Cl)Cl)oc2c1ccc1ccccc12`, the IC50 is 1.1 µM, the IC90 worked out at 1.8 µM and the CC50 was determined as 10.9 µM.

Turning to `NC(=O)c1ccc(NC(=O)COC(=O)c2c3c(nc4ccccc24)/C(=C\c2cccs2)CCC3)cc1`, the IC50 is 0.572 µM, the IC90 was 9.77 µM and the CC50 came out at 7.95 µM.

Consider `O=C(Nc1ncc(Cc2ccccc2Cl)s1)C1=NCCN1`, for which the IC50 is 3.75 µM, the IC90 is 10.3 µM and the CC50 was over 40 µM.

Regarding `Nc1ccc(C(=O)O)c(O)c1`, the IC50 is under 0.195 µM and the IC90 was over 100 µM.

For the compound `Cc1ccc(-c2nnc3sc(CCc4ccccc4)nn23)cc1`, the IC50 was 1.63 µM and the IC90 amounted to 6.83 µM.

`Cc1cc(NC2CCCCC2)nc(NCc2ccccc2)n1`: the IC50 is 10.3 µM, the IC90 stood at 13.2 µM and the CC50 worked out at 18.2 µM.

Consider `O=C(NC(=O)c1ccc(C(F)(F)F)cc1)Nc1ccc(-c2cnco2)cc1`, for which the IC50 was 49.6 µM, the IC90 is over 100 µM and the CC50 is over 40 µM.

Take `Nc1ncnc(Oc2cccc3cccnc23)c1[N+](=O)[O-]`: the IC50 was 6.19 µM, the IC90 worked out at 6.94 µM and the CC50 is 37.1 µM.

In the case of `Nc1nc(-c2cccc(F)c2)cs1`, the IC50 is 11.2 µM and the IC90 is over 100 µM.

In the case of `Cc1nc(N)nc(N)c1/C=C/C(C)(C)c1ccc(Cl)cc1`, the IC50 is 0.562 µM, the IC90 amounted to 1.29 µM and the CC50 is under 0.078 µM.

`COc1ccc(NC(=O)c2ccc(OC(F)F)cc2)cc1Cl`: the IC50 was 20.7 µM and the IC90 was over 100 µM.

Take `CC(NC(=O)c1ccc([N+](=O)[O-])cc1[N+](=O)[O-])c1ccc(-c2ccccc2)cc1` (configuration not stated): the IC50 was 2.51 µM, the IC90 was over 100 µM and the CC50 is over 40 µM.

Take `Cc1[nH]n(-c2ccccc2)c(=S)c1C=NCCCN=Cc1c(C)[nH]n(-c2ccccc2)c1=S`: the IC50 is under 0.391 µM and the IC90 was over 100 µM.

On to `O=C(Oc1ccc(/C=N/O)cc1)c1ccccc1Cl`, for which the IC50 was 28.5 µM and the IC90 is over 100 µM.

Consider `O=C(CC(=O)c1ccccc1O)c1cccc(F)c1`, for which the IC50 is 18.4 µM, the IC90 is 29.2 µM and the CC50 was over 40 µM.

Take `O=C(C[n+]1cnn(CC(=O)c2ccc(Cl)cc2Cl)c1)c1ccc([N+](=O)[O-])cc1`: the IC50 was 20.3 µM and the IC90 is 36.8 µM.

Consider `CC(=O)/C=C/c1ccc2ccccc2n1`, for which the IC50 was 5.65 µM, the IC90 came to 6.34 µM and the CC50 turned out to be 16.1 µM.

With `Cc1c(Cc2ccccc2)c(=O)n2c([nH]c3ccccc32)c1C#N`, the IC50 was 3.04 µM, the IC90 is over 100 µM and the CC50 was 13 µM.

Regarding `O=C(Nc1nnc(C2CC2)s1)c1ccccn1`, the half-maximal inhibitory concentration (IC50) was 2.75 µM, the IC90 is 3.68 µM and the CC50 came out at 15.6 µM.

As to `CCCCCc1cc(=O)oc2c(C(CCN(CC)CC)c3ccc(OC)cc3)c(OC)cc(OC)c12` (configuration not stated), the IC50 is 9.08 µM, the IC90 was 11.7 µM and the CC50 worked out at 13 µM.

On to `COc1ccccc1-c1nnc(NC(=O)c2ccc3ncsc3c2)o1`, for which the IC50 was 4.17 µM, the IC90 is over 100 µM and the CC50 amounted to 24.3 µM.

Take `CC(C)c1ccc(Nc2nc(NCc3ccco3)nc(N3CCOCC3)n2)cc1`: the IC50 was 4.99 µM, the IC90 amounted to 8.29 µM and the CC50 amounted to 34.6 µM.

The record behind these values is PubChem BioAssay AID1626 (SRMLSC, 2009).
